We go through 1 compound from patent publication US11938136B2, “Compositions for treating spinal muscular atrophy” (Hoffmann-La Roche Inc., priority 2015, dated 2024).

Where two headings read alike, the source gives them in different places.

The test system of assay [1] is FoxM1. The assay can be described thus: Alternative splicing of FoxM1 in SMA Type I patient fibroblasts (RT-qPCR). In kind it is cell-based. As to conditions: Homo sapiens, Fibroblast, 24 hours. As for the experimental part: FIG. 5. Alternative Splicing of FoxM1 in vitro SMA Type I patient fibroblasts were treated with the compound of Example 20 for 24 hours, and FoxM1 full-length (FL) and exon 9-lacking (Δ9) mRNAs were analyzed by RT-qPCR. Data represent means SEM of 6 repetitions and are expressed as fold change vs. untreated controls.
FoxM1, a gene alternatively spliced by other splicing modifier compounds, encodes a cell cycle regulator. […] 2007 February; 3(1):1-3. Laoukili et al, Biochim Biophys Acta. 2007 January; 1775(1):92-102]. […] Increased expression of the FoxM1A isoform, together with decreased expression of FoxM1 isoforms lacking exon 9, has the capability to disturb and inhibit cell cycle progression if splicing changes are at a level that is biologically significant. Thus, the compound of Example 20 acts in a similar way on the SMN2 and FoxM1 splicing machinery, but with opposing outcomes with regard to protein function and at varying degrees. The EC50 for MADD, a gene also identified as affected by splicing modifiers including the compound of Example 20 at high concentrations and known to be involved in apoptotic processes, is not known.

In assay [2] the test system is full length SMN2 minigene mRNA. Kind of assay: SMN2 minigene mRNA splicing RT-qPCR assay in cultured cells. In kind it is cell-based, human. The text has this:
The term “EC1.5x concentration for production of full length SMN2 minigene mRNA” (or “EC1.5x minigene”) is defined as that concentration of test compound that is effective in increasing the amount of full length SMN2 minigene mRNA to a level 1.5-fold greater relative to that in vehicle-treated cells.
The reverse transcription-quantitative PCR-based (RT-qPCR) assay is used to quantify the level of the full length SMN2 minigene (referred to herein by the term “FL SMN2mini”) mRNA containing SMN2 exon 7 in a HEK293H cell line stably transfected with said minigene and treated with a test compound. Materials used and respective sources are listed below in Table 1.
The SMN2-A minigene construct was prepared as described in International Patent Application WO2009/151546A1 page 145 paragraph [00400] to page 147 paragraph [00412](incl. FIG. 1 and FIG. 3 therein).
HEK293H cells stably transfected with the SMN2-A minigene construct (10,000 cells/well) are seeded in 200 μL of cell culture medium (DMEM plus 10% FBS, with 200 μg/mL hygromycin) in 96-well flat-bottom plates and the plate is immediately swirled to ensure proper dispersal of cells and the formation of an even monolayer of cells. Cells are allowed to attach for 6 hours. Test compounds are serially diluted 3.16-fold in 100% DMSO to generate a 7-point concentration curve. A solution of test compound (1 μL, 200× in DMSO) is added to each cell-containing well and the plate is incubated for 24 hours in a cell culture incubator (37° C., 5% CO2, 100% relative humidity). 2 replicates are prepared for each test compound concentration. The cells are then lysed in the Cells-To-Ct lysis buffer and the lysate is stored at −80° C.
Full length SMN2-A minigene and GAPDH mRNA are quantified using the primers and probes referenced in WO2014/209841A2 on page 80 in Table 1. Primer SMN Forward A (SEQ ID NO.1) hybridizes to a nucleotide sequence in exon 7 (nucleotide 22 to nucleotide 40), primer SMN Reverse A (SEQ ID NO.2) hybridizes to a nucleotide sequence in the coding sequence of Firefly luciferase, SMN Probe A (SEQ ID NO.3) hybridizes to a nucleotide sequence in exon 7 (nucleotide 50 to nucleotide 54) and exon 8 (nucleotide 1 to nucleotide 21). The combination of these three oligonucleotides detects only SMN1 or SMN2 minigenes (RT-qPCR) and will not detect endogenous SMN1 or SMN2 genes.
The SMN forward and reverse primers are used at final concentrations of 0.4 μM. The SMN probe is used at a final concentration of 0.15 μM. The GAPDH primers are used at final concentrations of 0.2 μM and the probe at 0.15 μM.
The SMN2-minigene GAPDH mix (15 μL total volume) is prepared by combining 7.5 μL of 2×RT-PCR buffer, 0.4 μL of 25×RT-PCR enzyme mix, 0.75 μL of 20×GAPDH primer-probe mix, 4.0075 μL of water, 2 μL of 10-fold diluted cell lysate, 0.06 μL of 100 μM SMN forward primer, 0.06 μL of 100 μM SMN reverse primer, and 0.225 μL of 100 μM SMN probe.
PCR is carried out at the following temperatures for the indicated time: Step 1: 48° C. (15 min); Step 2: 95° C. (10 min); Step 3: 95° C. (15 sec); Step 4: 60° C. (1 min); then repeat Steps 3 and 4 for a total of 40 cycles.
Each reaction mixture contains both SMN2-A minigene and GAPDH primers/probe sets (multiplex design), allowing simultaneous measurement of the levels of two transcripts.
The increase in the abundance of the FL SMN2mini mRNA relative to that in cells treated with vehicle control is determined from real-time PCR data using a modified ΔΔCt method (as described in Livak and Schmittgen, Methods, 2001, 25:402-8). The amplification efficiency E is calculated from the slope of the amplification curve for FL SMN2mini and GAPDH individually. The abundance of FL SMN2mini and GAPDH mRNA are then calculated as (1+E)^−Ct, where Ct is the threshold value for each amplicon. The abundance of FL SMN2mini mRNA is normalized to GAPDH mRNA abundance. […]

For `Cc1cn2nc(-c3cc(=O)n4cc(N5CCNC6(CC6)C5)ccc4n3)cc(C)c2n1` [Example 20, 7-(4,7-diazaspiro[2.5]octan-7-yl)-2-(2,8-dimethylimidazo[1,2-b]pyridazin-6-yl)pyrido[1,2-a]pyrimidin-4-one], the EC50 in assay [1] (read-out: EC50 for FoxM1 FL mRNA) turned out to be 67 ± 32 nM; in assay [1] (read-out: EC50 for FoxM1 Δ9 mRNA), 139 ± 43 nM. Moreover, the EC (1.5-fold increase) in assay [2] (Homo sapiens, HEK293-H, HEK293H cells stably transfected with SMN2-A minigene, 24 hours, 7-point concentration curve, read-out: EC1.5x minigene) came out at 0.0047 ± 0.0007 µM. In assay [2] (cells expressing the SMN2 minigene), the “maximum induction of SMN2 minigene full length mRNA” value is 20 fold.

Broadly, the EC50 is the concentration at which the effect is half-maximal.
